Test results: article PMC9704608, “Anti-leishmanial physalins—Phytochemical investigation, in vitro evaluation against clinical and MIL-resistant L. tropica strains and in silico studies” (PLOS ONE, 2022)
Like-named read-outs stand apart in the source and are kept apart here.

Assays:
L. major promastigotes = experiment: Promastigote growth inhibition assay (MTT), L. major; type: cell-based, Leishmania major; conditions: for IC50: Leishmania major; for IC50 / L. major IC50 (μM± SD): 72 h; for anti-leishmanial activity against promastigotes of L. major (in words): in vitro
Experimental: (§1) L. major and L. tropica (Clinical isolates) promastigotes were grown at […] in RPMI-1640 (Sigma) medium containing 10% of heat-inactivated (56°C for 30 min) fetal bovine serum. Cell viability was initially evaluated by wet mount method by observing the live cells under compound microscope. Parasite growth was assessed by counting live / motile promastigotes in a Neubauer chamber. Viable cell count was used for the further experimentations (treatments).
(§2) The promastigotes in their log phase were used in 96-well plates. 1 × 10^6 wild-type and resistant promastigotes were dispensed in 96 96-well plates, and incubated with tested compounds at a range concentration of 200–10 μM at 27°C for 72 h. After incubation of 72 h, MTT dye (3-(4,5-dimethylthiazol-2-yl)-2,5-diphenyl-2H-tetrazolium bromide) was added and further incubate it for 3–4 h. Amphotericin B, pantamidine and miltefosine were used as the positive control, untreated promastigotes were used as negative control moreover DMSO control was also added in the study as a stock solution of the compounds that were prepared in DMSO. All the experiments were performed in triplicates. After completion of the experiment the absorbance by Multiskan ascent plate reader at 452 nm and percent inhibition was calculated by the following formula.
(§3) Cytotoxic concentration (%) = [100- (Absorbance of test)/ (Absorbance of solvent control) ×100] %.

L. tropica promastigotes = experiment: Promastigote growth inhibition assay (MTT), L. tropica clinical isolates; type: cell-based, Leishmania tropica; conditions: for IC50: Leishmania tropica; for IC50 / L. tropica IC50 (μM± SD): 72 h
Experimental: as §1, §2, §3

[1] = Cytotoxicity (MTT) against BJ cell line; type: cell-based, human; conditions: pure compounds, human fibroblast, 48 h, read-out: BJ cell line CC50 (μM± SD)
Experimental: (§4) The cytotoxicity of the test compounds against normal cell lines was evaluated through MTT (3-[4, 5-dimethylthiazole-2-yl]-2, 5-diphenyl-tetrazolium bromide] colorimetric assay in 96-well flat-bottomed microplates. The 3T3 (mouse fibroblast) and BJ (human fibroblast) were cultured Dulbecco’s Modified Eagle Medium, supplemented with 5% of fetal bovine serum (FBS), 100 IU/mL of penicillin and 100 μg/mL of streptomycin in 75 cm2 flasks, and then incubated in 5% CO2 incubator at 37°C. The growing cells were counted by using a haemocytometer, and diluted with the particular medium. The 5x10^4 cells/mL of the cell culture was prepared, and a sample […] was introduced into each well. […] After 48 hours, 200 μL MTT (0.5 mg/mL) was added, and the incubation was further continued for 4 hrs. After that time, 100 μL of DMSO was added to each well. The absorbance was measured using a micro plate reader (Spectra Max Plus, Molecular Devices, CA, USA) at 570 nm for the extent of MTT reduction to formazan within the cells. The cytotoxicity was recorded as CC50 against cells by using Soft- Max Pro software. Doxorubicin and cycloheximide were used as positive control. The experiments were run in triplicate.

[2] = system: BJ (human fibroblast) cells; experiment: Cytotoxicity (MTT) against BJ cell line; type: cell-based; conditions: for L. tropica SI (CC50/ IC50): CC50 BJ cell line / IC50 L. tropica; for BJ (human fibroblast) IC50 (μM± SD): cytotoxicity of compounds 1-9; for BJ cell line CC50 (μM± SD): pure compounds, human fibroblast, 48 h; for IC50: Homo sapiens, Fibroblast, read-out: BJ (human fibroblast) IC50 (μM± SD)
Experimental: as §4

[3] = system: 3T3 (mouse fibroblast) cells; experiment: Cytotoxicity (MTT) against 3T3 cell line; type: cell-based; conditions: for 3T3 (mouse fibroblast) IC50 (μM ± SD): cytotoxicity of compounds 1-9; for IC50: Mus musculus, Fibroblast, read-out: 3T3 (mouse fibroblast) IC50 (μM ± SD); for 3T3 Cell line CC50 (μM± SD): pure compounds, mouse fibroblast, 48 h
Experimental: (§5) The cytotoxicity of the test compounds against normal cell lines was evaluated through MTT (3-[4, 5-dimethylthiazole-2-yl]-2, 5-diphenyl-tetrazolium bromide] colorimetric assay in 96-well flat-bottomed microplates. The 3T3 (mouse fibroblast) and BJ (human fibroblast) were cultured Dulbecco’s Modified Eagle Medium, supplemented with 5% of fetal bovine serum (FBS), 100 IU/mL of penicillin and 100 μg/mL of streptomycin in 75 cm2 flasks, and then incubated in 5% CO2 incubator at 37°C. The growing cells were counted by using a haemocytometer, and diluted with the particular medium. The 5x10^4 cells/mL of the cell culture was prepared, and a sample […] was introduced into each well. The medium was removed after overnight incubation, and 200 μL of fresh medium was added with different concentrations of compounds (1–30 μM). After 48 hours, 200 μL MTT (0.5 mg/mL) was added, and the incubation was further continued for 4 hrs. After that time, 100 μL of DMSO was added to each well. The absorbance was measured using a micro plate reader (Spectra Max Plus, Molecular Devices, CA, USA) at 570 nm for the extent of MTT reduction to formazan within the cells. The cytotoxicity was recorded as CC50 against cells by using Soft- Max Pro software. Doxorubicin and cycloheximide were used as positive control. The experiments were run in triplicate.

[4] = Cytotoxicity (MTT) against 3T3 cell line; type: cell-based, mouse; conditions: pure compounds; mouse fibroblast, 48 h; read-out: 3T3 Cell line CC50 (μM± SD)
Experimental: as §5

[5] = system: MIL-resistant L. tropica promastigotes; experiment: Growth inhibition assay (MTT) against MIL-resistant line; type: cell-based, Leishmania tropica; conditions: 72 h; for MIL Resistant L. tropica IC50 (μM± SD): miltefosine-unresponsive strain, promastigotes
Experimental: as §2, §3
Promastigote cultures tL. tropica (Clinical isolates) were maintained at 26°C in RPMI-1640 medium containing 15% FBS and 1% penicillin–streptomycin mixture.
Generation of miltefosine-unresponsive strain was carried under high MIL pressure by in vitro passage with a stepwise increase in the MIL concentration. At each step, parasites were cultured and passaged every 3–4 days at an initial concentration of 5x10^5 promastigotes/mL in order to achieve -stable growth as compared to the wildtype isolate. Growth rates were measured for resistant populations and compared with the WT strain. Parasites were counted at an initial concentration of 5x10^5 parasites/mL and growth was measured daily using a Neubauer chamber until the population reached the stationary phase. Furthermore, the fluorescence microscopic investigations via DAPI stain were also carried out to supplement the study.

[6] = CC50 BJ fibroblast cell line / IC50 L. major
[7] = extracts, fractions, standard drugs, promastigotes, read-out: L. major IC50 (μg/ml ± SD)
[8] = pure compounds, standard drugs, promastigotes, read-out: L. major IC50 (μM± SD)
[9] = CC50 BJ fibroblast cell line / IC50 L. tropica
[10] = extracts, fractions, standard drugs, promastigotes, read-out: L. tropica IC50 (μg/ml ± SD)
[11] = pure compounds, standard drugs, promastigotes, clinical isolate, read-out: L. tropica IC50 (μM± SD)
[12] = pure compounds, standard drugs, promastigotes
[13] = pure compounds, standard drugs, promastigotes, clinical isolate
[14] = CC50 3T3 mouse fibroblast cell line / IC50 L. major
[15] = read-out: L. major IC50 (μM± SD)
[16] = read-out: L. tropica IC50 (μM± SD)

Row | Compound | L. major SI (CC50/ IC50) (L. major promastigotes; [6]) | IC50 (L. major promastigotes; [7]) | IC50 (L. major promastigotes; [8]) | L. tropica SI (CC50/ IC50) (L. tropica promastigotes; [9]) | IC50 (L. tropica promastigotes; [10]) | IC50 (L. tropica promastigotes; [11]) | L. tropica SI (CC50/ IC50) [2] | anti-leishmanial activity against promastigotes of L. major (in words) (L. major promastigotes) | L. major IC50 (μM± SD) (L. major promastigotes; [12]) | BJ (human fibroblast) IC50 (μM± SD) [2] | 3T3 (mouse fibroblast) IC50 (μM ± SD) [3] | IC50 (L. major promastigotes; [15]) | IC50 (L. tropica promastigotes; [16]) | CC50 at 48 h [1] | MIL Resistant L. tropica IC50 (μM± SD) [5] | 3T3 Cell line CC50 (μM± SD) [3] | other results
1 | C[C@@H]1[C@H](O)[C@@H](C)/C=C/C=C/C=C/C=C/C=C/C=C/C=C/[C@H](O[C@@H]2O[C@H](C)[C@@H](O)[C@H](N)[C@@H]2O)C[C@@H]2O[C@](O)(C[C@@H](O)C[C@@H](O)[C@H](O)CC[C@@H](O)C[C@@H](O)CC(=O)O[C@H]1C)C[C@H](O)[C@H]2C(=O)O [Amphotericin B, reference compound] | 4.37 | 3.14 ± 0.04 µg/mL | 3.39 ± 0.043 µM | 4.69 | 3.16 ± 0.04 µg/mL | 3.42 ± 0.04 µM | 4.69 | – | – | – | – | – | – | – | – | – | CC50 at 48 h ([1]; BJ fibroblast cells): 16.1 µM
2 | CC12C(=O)C=CC=C1C(O)CC1C(=O)C3=NCC4C(=O)OC5CC4(C)C3C3(O)C(O)(CCC12)C(=O)OC53C (stereo not drawn) [Compound 1, Aminophysalin B] | – | – | – | – | – | – | – | no significant activity | Inactive | Non cytotoxic | Non cytotoxic | – | – | – | – | – | L. tropica IC50 (μM± SD) (L. tropica promastigotes; [13]): Inactive; BJ cell line CC50 (μM± SD) [2]: Non cytotoxic
3 | C[C@]12C(=O)C=CCC1=CC[C@@H]1[C@@H]2CC[C@]2(O)C(=O)O[C@@]3(C)[C@H]4C[C@]5(C)[C@@H](CO[C@@]16O[C@@]32[C@H]5C6=O)C(=O)O4 [Compound 2, Physalin B] | 3.5 | – | – | 0.8 | – | – | 0.8 | – | – | – | – | 3.04 ± 1.12 µM | 13.33 ± 0.098 µM | 10.8 ± 1.5 µM | inactive | – | L. major SI (CC50/ IC50) (L. major promastigotes; [14]): 3.28; L. major SI (CC50/ IC50) ([2]; CC50 BJ cell line / IC50 L. major): 3.5; IC50 [2]: 27.6 ± 0.9 µM; CC50 at 48 h [4]: 10 ± 0.4 µM; IC50 [3]: 10 ± 0.4 µM
4 | CC12CC3OC(=O)C1COC14OC5(C2C1=O)C(O)(CCC1C4CC2OC24CC=CC(=O)C14C)C(=O)OC35C (stereo not drawn) [Compound 3, 5β, 6β-epoxyphysalin B] | 7.34 | – | – | 1.48 | – | – | 1.48 | – | – | – | – | 3.76 ± 0.85 µM | 18.5 ± 0.28 µM | 27.6 µM | inactive | – | L. major SI (CC50/ IC50) (L. major promastigotes; [14]): 0.19; L. tropica SI (CC50/ IC50) (L. tropica promastigotes; CC50 3T3 mouse fibroblast cell line / IC50 L. tropica): 0.038; IC50 [2]: 10.8 ± 1.5 µM; CC50 at 48 h [4]: 0.72 ± 0.5 µM; L. tropica SI (CC50/ IC50) ([3]; CC50 3T3 cell line / IC50 L. tropica): 0.038; IC50 [3]: 0.72 ± 0.5 µM
5 | C[C@]12C(=O)C=CC=C1[C@@H](O)C[C@@H]1[C@@H]2CC[C@@]2(O)C(=O)O[C@@]3(C)[C@H]4C[C@]5(C)[C@@H](CO[C@@]16O[C@]23[C@H]5C6=O)C(=O)O4 [Compound 7, Physalin G] | – | – | – | – | – | – | – | no significant activity | – | Non cytotoxic | Non cytotoxic | 52.3 ± 1.18 µM | 19.49 ± 0.02 µM | > 100 µM | – | Non cytotoxic | IC50 ([5]; Leishmania tropica, read-out: MIL Resistant L. tropica IC50 (μM± SD)): 39.4 ± 0.65 µM
6 | CC12CC3OC(=O)C1COC14OC5(C2C1=O)C(O)(CC(O)C1C4CC(O)C24C=CC(OO2)C(=O)C14C)C(=O)OC35C (stereo not drawn) [Compound 8, Physalin K] | – | – | – | – | – | – | – | no significant activity | inactive | Non cytotoxic | Non cytotoxic | – | – | – | inactive | Non cytotoxic | L. tropica IC50 (μM± SD) (L. tropica promastigotes; [13]): inactive; CC50 [1]: > 100 µM
7 | C[C@@]12C[C@H]3OC(=O)[C@@H]1CO[C@@]14O[C@]5([C@H]2C1=O)[C@@](O)(CC[C@H]1[C@H]4C[C@@H](O)[C@@]2(O)CC=CC(=O)[C@]12C)C(=O)O[C@@]35C [Compound 9, Physalin D] | – | – | – | – | – | – | – | no significant activity | inactive | Non cytotoxic | Non cytotoxic | – | 55.24 ± 0.01 µM | > 100 µM | inactive | Non cytotoxic | –
8 | CCCCCCCCCCCCCCCCOP(=O)([O-])OCC[N+](C)(C)C [Miltefosine, reference compound] | – | 10.4 ± 0.42 µg/mL | 25.6 ± 1.03 µM | – | 17.4 ± 0.42 µg/mL | 42.8 ± 1.03 µM | – | – | – | – | – | – | – | – | – | – | BJ cell line CC50 (μM± SD) [2]: non-toxic
9 | N=C(N)c1ccc(OCCCCCOc2ccc(C(=N)N)cc2)cc1 [Pentamidine, reference compound] | – | 9.25 ± 0.005 µg/mL | 27.2 ± 0.015 µM | – | 9.25 ± 0.005 µg/mL | 27.2 ± 0.01 µM | – | – | – | – | – | – | – | – | – | – | –
